Publication PMC12524297 (International Journal of Molecular Sciences, 2025)
Read-outs that look alike come from different tables or passages of the source.

What was measured:
[1] = In vitro assays confirming flagged compound (no details given)
Description: 5.Implementation and Reproducibility
5.1 Real-World Deployment in Chemical Safety Assessment
HazChemNet has been integrated into a cloud-based decision support system for chemical safety evaluation, enabling real-time toxicity prediction for industrial and regulatory use. Key applications include:
Industrial Chemical Screening:
A pharmaceutical company utilized HazChemNet to prioritize 1,200 candidate compounds for drug development. The model identified 18% as high-risk (toxic), reducing experimental testing costs by 35%.
Environmental Regulation Compliance:
A regulatory agency deployed the model to screen 5,000 industrial chemicals under the EU REACH framework.
HazChemNet achieved 89% concordance with expert evaluations, accelerating risk assessment workflows.
5.2 Case Study: Identification of Emerging Contaminants
We applied HazChemNet to predict the toxicity of per- and polyfluoroalkyl substances (PFAS), a class of persistent environmental pollutants. The model identified 22 out of 30 PFAS compounds as hazardous, including:
PFOS (Perfluorooctanesulfonic acid): Predicted probability = 0.93 (high risk).
GenX (Hexafluoropropylene oxide dimer acid): Predicted probability = 0.87 (moderate risk).
Validation: Experimental LC50 data from zebrafish assays confirmed the predictions with a Spearman correlation of ρ […]
5.3 Integration with Laboratory Information Systems […]

[2] = system: Caenorhabditis elegans (C. elegans, N2 strain)

Molecule: O=C1C=CC(=O)C(Cl)=C1 [CID_123456]
- confirmation of hazard flag by in vitro assays [1]: confirmed by in vitro assays

Molecule: O=C(O)CC(O)(CC(=O)O)C(=O)O [Citric Acid]
- mortality ([2]; in vivo): no significant mortality

Molecule: OCC(O)CO [Glycerol]
- mortality ([2]; in vivo): no significant mortality

Molecule: CC(=O)[O-].CC(=O)[O-].[Pb+2] [Lead Acetate]
- LD50 ([2]; L4-stage worms, 24 h at 20 °C, K-M buffer, Probit analysis): 0.464 to 1 mg/mL

Molecule: Ethyl Alcohol
- LD50 ([2]; in vivo): 46.4 to 100 mg/mL

Molecule: Gibberellin
- mortality ([2]; in vivo): no significant mortality
